Experiments:
[1] = parameters: method as in earlier work; conditions: ref 24 (Tanaka et al., ACS Med. Chem. Lett. 2025); cited from earlier work
[2] = system: MK-801 challenged mouse; parameters: method as in earlier work; conditions: IP, ref 24 (Tanaka et al., ACS Med. Chem. Lett. 2025); cited from earlier work
[3] = parameters: method as in earlier work; conditions: ref 24 (Tanaka et al., ACS Med. Chem. Lett. 2025); cited from earlier work; remark: listed apart in the source
[4] = parameters: method as in earlier work; conditions: ref 24 (Tanaka et al., ACS Med. Chem. Lett. 2025); cited from earlier work; remark: listed apart in the source
[5] = parameters: method as in earlier work; conditions: ref 24 (Tanaka et al., ACS Med. Chem. Lett. 2025); cited from earlier work; remark: listed apart in the source
[6] = Plasma protein binding, human (equilibrium dialysis); assay type: in vitro ADME; conditions: pH 7.4, read-out: PPB human (converted)
Procedure: (§1) Plasma protein binding and Brain homogenate binding: Determination of fraction unbound (f u) in plasma was conducted in vitro via equilibrium dialysis using HTDialysis (HTD) membrane plates. The top half of the plate was filled with 100 uL of Dubelco’s Phosphate Buffered Saline, pH 7.4 (DPBS). Compounds were diluted into plasma from each species (5 µM final concentration), which was aliquoted in triplicate to the ‘bottom half’ of the prepared HTD plate wells. The HTD plate was sealed and incubated for 6 hours at 37 °C. Following incubation, each well (both top and bottom halves) were transferred (20 µL) to the corresponding wells of a 96-shallow-well (V-bottom) plate. The daughter plates were then matrix-matched (DPBS side wells received equal volume of plasma, and plasma side wells received equal volume of DPBS), and extraction solution (120 µL; acetonitrile containing 50 nM carbamazepine as IS) was added to all wells of both daughter plates to precipitate protein and extract test article. The plates were then sealed and centrifuged (3500 rcf) for 10 minutes at ambient temperature. Supernatant (60 µL) from each well of the daughter plates was then transferred to the corresponding wells of new daughter plates (96-shallow-well, V bottom) containing water (Milli-Q, 60 µL/well), and the plates were sealed in preparation for LC-MS/MS analysis (see LC-MS/MS analysis method below).
(§2) The unbound fraction (f u) was calculated following the equation below, and mean values for each species were calculated from 3 replicates. […]
(§3) Fraction unbound for both plasma and brain samples was determined using Equation 4.
(§4) Equation 4 Determination of fraction unbound in plasma. […]

[7] = Plasma protein binding, mouse; assay type: in vitro ADME; conditions: mouse, plasma, pH 7.4, mouse plasma, bound; read-out: PPB mouse (converted)
Procedure: as §1, §2, §3, §4

[8] = Liver microsome intrinsic clearance, human; assay type: in vitro ADME; conditions: pH 7.4; human liver microsomes, predicted intrinsic clearance; read-out: LMS CLINT human
Procedure: (§5) were incubated in 100 mM potassium phosphate pH 7.4 buffer with 3 mM MgCl2 at 37 °C with constant shaking. After a 5 min preincubation, the reaction was initiated by the addition of NADPH (1 mM). At selected time intervals (0, 3, 7, 15, 25, and 45 min), aliquots were taken and subsequently placed into a 96-well plate containing cold acetonitrile with internal standard (50 ng/mL carbamazepine). Plates were then centrifuged at 3000 rcf (4 °C) for 10 min, and the supernatant was transferred to a separate 96-well plate and diluted 1:1 with water for LC/MS/MS analysis. The in vitro half-life ( 1/2, min, Eq. 1), intrinsic clearance (CLint, mL/min/kg, Eq. 2), and subsequent predicted hepatic clearance (CLhep, mL/min/kg, Eq. 3) was determined employing the […]
(§6) where k represents the slope from linear regression analysis of the natural log percent remaining of a test compound as a function of incubation time […]
(§7) (2) CLint = in vitroT x mg microsomes x gram liver x kg body wt ascale-up factors: of 20 (human) or 45 (rat) […]
(§8) where Qh (hepatic blood flow, mL/min/kg) is 21 (human) or 70 (rat).
(§9) LC/MS/MS Bioanalysis of Samples from Plasma Protein Binding and Intrinsic Clearance […]
(§10) Samples were analyzed on a Thermo Electron TSQ Quantum Ultra triple quad mass spectrometer (San Jose, CA) via electrospray ionization (ESI) with two Themo Electron Accella pumps (San Jose, CA), and a Leap Technologies CTC PAL autosampler (Carrboro, NC). Analytes were […]

[9] = Liver microsome intrinsic clearance, mouse; assay type: in vitro ADME; conditions: mouse liver microsomes, predicted intrinsic clearance; read-out: LMS CLINT mouse
[10] = Liver microsome intrinsic clearance, rat; assay type: in vitro ADME; conditions: pH 7.4; rat liver microsomes, predicted intrinsic clearance; read-out: LMS CLINT rat
Procedure: as §5, §6, §7, §8, §9, §10

[11] = Rat in vivo PK (plasma clearance) in SAR tables; conditions: read-out: Rat CLp
[12] = target: T1, human TREK-1 (hTREK-1) (Homo sapiens, UniProt O95069); experiment: TREK-1 thallium flux assay (CHO-K1 cells stably expressing hTREK-1); assay type: cell-based; conditions: human TREK-1, thallium flux; read-out: h TREK-1 Tl+ IC50
T1 construct: expressed in transfected cells
T1 sequence (O95069 1-426): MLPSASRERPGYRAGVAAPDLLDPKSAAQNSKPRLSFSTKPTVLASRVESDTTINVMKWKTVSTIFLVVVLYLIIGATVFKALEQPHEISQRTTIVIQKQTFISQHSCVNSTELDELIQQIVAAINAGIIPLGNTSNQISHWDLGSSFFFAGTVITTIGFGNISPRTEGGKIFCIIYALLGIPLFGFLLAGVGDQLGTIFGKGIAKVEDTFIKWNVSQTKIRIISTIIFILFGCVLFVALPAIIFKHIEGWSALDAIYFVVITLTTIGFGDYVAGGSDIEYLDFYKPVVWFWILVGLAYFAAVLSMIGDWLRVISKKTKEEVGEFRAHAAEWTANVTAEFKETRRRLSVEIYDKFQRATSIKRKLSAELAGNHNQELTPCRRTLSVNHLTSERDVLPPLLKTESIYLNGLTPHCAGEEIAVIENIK
Procedure: Procedures for Biological Experiments
TREK-1 Thallium flux assay
CHO-K1 cells stably expressing hTREK-1 were cultured in T225 flask. The cells were loaded with FluxOR dye and plated in 384 well plate at the experiment day. Test compounds or control compound (tert-butyl (3-((4-(benzyloxy)-2-methylphenyl)carbamoyl)-4-chlorophenyl)carbamate) or 0.3% DMSO (vehicle control) were added directly to the cell plates and incubated for 10 min, and then treated with thallium stimulus buffer to initiate thallium flux.
To measure the efficacy and potency of test compounds, the change in fluorescence intensity (ΔRatio) and % inhibition were calculated using the following equations:
ΔRatio = (fluorescence intensity at 25 seconds after thallium addition)/(average of fluorescent intensity before thallium addition)
0.3% DMSO - ΔRatio of 10 μM control compound)}x100
% inhibition vs compound concentration were plotted in XLfit and calculated IC50.
CHO-K1 cells stably expressing human TREK-1 (hTREK-1) were cultured in T225 flask.
The cells were loaded with FluxOR dye and plated in 384 well plate at the experiment day. Test compounds or control compound (tert-butyl (3-((4-(benzyloxy)-2-methylphenyl)carbamoyl)-4-chlorophenyl)carbamate) or 0.3% DMSO (vehicle control) which were prepared on separate plates were added to the cell plates and incubated for 10 min, and then the cells with test compounds or […]
chlorophenyl)carbamate) or 0.3% DMSO (vehicle control) were treated with thallium stimulus buffer to initiate thallium flux. To measure the efficacy and potency of test compounds, the change in fluorescence intensity (ΔRatio) and % inhibition were calculated using the following equations: […]

[13] = Plasma protein binding, rat; assay type: in vitro ADME; conditions: rat, plasma, pH 7.4, rat plasma, bound; read-out: PPB rat (converted)
Procedure: as §1, §2, §3, §4

[14] = Rat brain to plasma ratio (Kp, Kp,uu); assay type: in vivo; conditions: male, Sprague Dawley, brain and plasma, intravenous, 0.2 mg/kg; rat brain:plasma
Procedure: Determination of brain to plasma ratio:
All animal study procedures were approved by the Institutional Animal Care and Use Committee and were conducted in accordance with the National Institutes of Health regulations of animal care covered in Principles of Laboratory Animal Care (National Institutes of Health). All rats were fasted overnight prior to testing.
For determination of the brain over plasma ratio (Kp), compounds were formulated in 8% ethanol, 32% PEG400 and 60% DMSO (v/v/v) and administered as a single 0.2 mg/kg IV dose (1 mL/kg) to male, Sprague Dawley rats (n = 1) via injection into a surgically-implanted jugular vein catheter. At 15 min post dosing, blood sample was collected into chilled, K2EDTA anticoagulant-fortified tube and immediately placed on wet ice. The blood sample was then centrifuged (1700 rcf, 5 minutes, 4 °C) to obtain plasma sample. At the same post-administration time point, whole brain sample was obtained by rapid dissection, rinsed with PBS, and immediately frozen in individual tissue collection box (dry ice). All brain and plasma samples were stored at -80 °C until […]
Sample Analysis: Concentrations in plasma and brain homogenates were quantified by liquid chromatography tandem mass spectrometry (LC-MS/MS). Whole brains were homogenized in 3 mL of 70:30 IPA:water in a mini bead beater for 3 min, and centrifuged at 3,500 g for 5 min. 5 uL of the supernatant was diluted in 15 uL of blank plasma for quantification of the analytes. Plasma samples were centrifuged at 3,500 g for 5 min. A standard curve was generated by diluting the analytes DMSO stocks with blank plasma to obtain a final concentration of 10,000 ng/ml followed by a serial dilution down to 0.5 ng/ml. Quality controls were generated by a serial dilution of the 5,000 ng/ml standard curve solution in blank plasma to obtain 3 concentrations of 500, 50, and 5 ng/ml. 20 uL of brain diluted in plasma, plasma, blank plasma, standard curve and QC samples were loaded in a V-bottom 96-well plate. 120 uL of acetonitrile containing 0.05 uM carbamazepine (internal standard) was added to each well and the plate was centrifuged at 3,500 g for 5 min. 60 uL of the supernatant of each well (protein free) was transferred to a new 96-well plate containing 60 uL of water. The plates were sealed for analysis by LC-MS/MS.
Plasma and brain tissue samples originating from in vivo studies were analyzed by electrospray ionization using an AB Sciex Q-TRAP 5500 (Foster City, CA) that was coupled to a Shimadzu LC-20AD pump (Columbia, MD) and a Leap Technologies CTC PAL auto-sampler (Carrboro, NC). Analytes were separated by gradient elution using a C18 column (3 x 50 mm, 3 mm; Fortis Technologies Ltd, Cheshire, UK) that was thermostated at 40 °C. HPLC mobile phase A was 0.1% formic acid in water (pH unadjusted); mobile phase B was 0.1% formic acid in acetonitrile (pH […]
min, with an isocratic hold for 0.5 min, before transitioning to 10% B over 0.05 min. The column was re-equilibrated (1 min) before the next sample injection. The total run time was 2.55 min, and the HPLC flow rate was 0.5 ml/min. The source temperature was set at 500 °C, and mass spectral analyses were performed using a Turbo-Ion spray source in positive ionization mode (5.0-kV spray voltage) and using multiple-reaction monitoring of transitions specific for the analytes. All data were analyzed using AB Sciex Analyst 1.5.1 software.
Brain plasma concentration ratio (Kp) was calculated by dividing brain concentration by plasma concentration for each animal. Unbound brain to unbound plasma concentration ratio (Kp,uu) is calculated using the following formula: Kp,uu = (Brain ng/g x brain fu)/(plasma ng/ml x plasma fu).
In-vitro determination of blood-brain barrier penetration potential
Blood-brain barrier penetration was determined using MDR1-MDCK cell monolayers by Absorption Systems, following their protocol. In short, compounds were incubated at […] final concentration on one side of the cell monolayer for 2 hours. […]

SMILES | brain homogenate binding rat [1] [%] | MED, MK-801 mouse NOR [2] [mg/kg] | brain homogenate binding mouse [3] [%] | ChromatoLogD [4] | aqueous solubility [5] [µM] | fraction unbound at 6 h, 5 µM [6] | fraction unbound at 6 h, 5 µM [7] | CLint scaled at 1 µM [8] [mL/min/kg] | CLint scaled [9] [mL/min/kg] | CLint scaled at 1 µM [10] [mL/min/kg] | clearance [11] [mL/min/kg] | IC50 [12] [nM] | fraction unbound at 6 h, 5 µM [13] | Kp at 15 min [14]
Cc1cc(C#Cc2ccc(F)cc2)cnc1NC(=O)c1cc(NC(=O)OC(C)(C)C)ccc1Cl [Compound 5] | > 99.9 | 10 | 99.4 | 5.16 | < 5 | – | – | – | – | – | – | – | – | –
CC(=O)N1CC(F)(Cn2ncc(Cl)c2C(=O)Nc2ncc(C#Cc3ccccc3)cc2C)C1 [Compound 15e, 1-((1-Acetyl-3-fluoroazetidin-3-yl)methyl)-4-chloro-N-(3-methyl-5-(phenylethynyl)pyridin-2-yl)-1H-pyrazole-5-carboxamide] | – | – | – | – | – | 0.039 | 0.022 | 16 | 340 | 72 | – | – | – | –
CC(=O)N[C@H]1CC[C@@H](n2ncc(Cl)c2C(=O)Nc2ncc(C#Cc3ccccc3)cc2C)CC1 [Compound 15f, 1-(cis-4-Acetamidocyclohexyl)-4-chloro-N-(3-methyl-5-(phenylethynyl)pyridin-2-yl)-1H-pyrazole-5-carboxamide] | – | – | – | – | – | 0.012 | 0.008 | – | – | – | 27.8 | 130 | 0.016 | 0.97

From article PMC12621189, “Optimization of Selective and CNS Penetrant Alkyne-Based TREK Inhibitors: The Discovery and Characterization of ONO-9517601 (VU6022856) and ONO-7927846 (VU6024391)” (Journal of Medicinal Chemistry, 2025)
